Where two headings read alike, the source gives them in different places. Numbered stars: 1 amine (or outer) side, 2 acyl side, 3 side chain; on linkers, the order of the positions; unused ones are H or OH. Square brackets hold non-standard residues; d marks the D form. Side chains are listed from the residue outwards. Peptide text beside a SMILES is read from it. * marks the point of attachment. C20 diacid = O=C(O)CCCCCCCCCCCCCCCCCCC(=O)*; γGlu = O=C(O)[C@H](CCC(=O)[*:2])N[*:1]; AEEA = NCCOCCOCC(=O)O; Aib = CC(C)(N)C(=O)O

Series [1] can be described thus: Turbidity of crude library peptides (absorbance at 600 nm). The format is physicochemical. The settings on record: Physical stability of peptides. A digest of the protocol:
(§1)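 Turbidity is the absorbance at 600 nm, taken before heating. Fibril signal is the mean ThT emission at 480 nm (450 nm excitation), read every 10 min over 72 h at 40° C with 700 rpm shaking between reads. Peptides at 267 μM, pH 4.0 acetate or pH 7.0 phosphate buffer (50 mM), 4 μM ThT final.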

Series [2] can be described thus: Fibril formation of crude library peptides (Thioflavin T). Particulars: Physical stability of peptides. Set-up: key: average ThT fluorescence emission at 480 nm (ex 450 nm), raw units. The format is physicochemical. Summed up: as §1
The target of the next series is GLP1R (Homo sapiens, UniProt P43220). Description: hGLP1R potency, cAMP accumulation in CHO-K1 cells stably overexpressing hGLP1R. Set-up: host or cells: CHO-K1. The format is cell-based. The settings on record: for EC50: cAMP accumulation, CHO-K1 cells overexpressing hGLP1R; for SCTR EC50/GLP1R EC50 ratio: selectivity for hGLP1R over hSCTR, cAMP accumulation in CHO-K1 cells; for Selectivity: SCTR EC50/GLP1R EC50 ratio. Summed up: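 2000 cells/well, DPBS + 0.05% casein + 0.5 mM IBMX; 30 min RT stimulation; HTRF cAMP detection after 1 h. Purified: 3-fold ×11, n=2; crude: 10-fold ×5, n=1. EC50 by variable-slope fit.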
GLP1R, sequence (P43220 24-463): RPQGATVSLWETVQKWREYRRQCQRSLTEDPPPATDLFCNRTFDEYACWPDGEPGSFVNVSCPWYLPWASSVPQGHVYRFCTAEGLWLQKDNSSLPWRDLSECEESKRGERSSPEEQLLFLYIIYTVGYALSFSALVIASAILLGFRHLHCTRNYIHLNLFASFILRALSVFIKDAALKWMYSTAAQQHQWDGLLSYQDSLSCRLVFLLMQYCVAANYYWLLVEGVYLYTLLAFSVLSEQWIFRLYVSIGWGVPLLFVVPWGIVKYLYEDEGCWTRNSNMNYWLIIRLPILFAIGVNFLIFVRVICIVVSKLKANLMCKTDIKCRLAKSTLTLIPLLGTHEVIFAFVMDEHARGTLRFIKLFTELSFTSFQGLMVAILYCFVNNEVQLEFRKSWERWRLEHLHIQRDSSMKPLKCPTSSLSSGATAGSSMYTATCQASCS

The target in a further series is SCTR (Homo sapiens, UniProt P47872). Description: hSCTR potency, cAMP accumulation in CHO-K1 cells stably overexpressing hSCTR. The settings on record: cAMP accumulation, CHO-K1 cells overexpressing hSCTR. The format is cell-based. More on the design: alternatively Euroscreen ES-712-AF; FAST-0161L; host or cells: CHO-K1. Summed up: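 Thawed CHO-K1 cells carrying stable hSCTR are plated into casein/IBMX buffer (0.05%, 0.5 mM), dosed immediately for 30 min at room temperature, then cAMP is detected by TR-FRET. Purified peptides run as 11 three-fold dilutions in duplicate, and curves are fitted with variable slope.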
SCTR, sequence (P47872 23-440): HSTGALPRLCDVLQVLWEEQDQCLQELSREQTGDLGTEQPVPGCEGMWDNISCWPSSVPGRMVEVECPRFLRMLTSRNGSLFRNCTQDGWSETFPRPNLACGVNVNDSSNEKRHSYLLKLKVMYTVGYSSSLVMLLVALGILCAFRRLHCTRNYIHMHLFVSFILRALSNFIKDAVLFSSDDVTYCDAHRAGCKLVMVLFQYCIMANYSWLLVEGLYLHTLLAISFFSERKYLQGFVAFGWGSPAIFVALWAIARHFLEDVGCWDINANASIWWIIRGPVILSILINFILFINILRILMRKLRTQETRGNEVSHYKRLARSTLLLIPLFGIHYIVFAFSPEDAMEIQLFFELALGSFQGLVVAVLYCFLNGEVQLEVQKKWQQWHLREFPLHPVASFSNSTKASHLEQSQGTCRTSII
For orientation: cAMP levels reflect the balance of adenylyl cyclase and phosphodiesterase activity.

[3] abbreviates: read-out: hGLP1R pEC50 (converted).
The mark [4] stands for this setting: read-out: hSCTR pEC50 (converted).
[5] abbreviates: read-out: pEC50 hGLPR1 (converted).
Where [6] appears, read: read-out: pEC50 hSCTR (converted).

`CC(C)C[C@H](NC(=O)[C@H](Cc1ccccc1)NC(=O)[C@H](CCCNC(=N)N)NC(=O)[C@H](CCC(N)=O)NC(=O)[C@H](CC(C)C)NC(=O)C(C)(C)NC(=O)[C@H](C)NC(=O)[C@H](CCC(=O)O)NC(=O)[C@H](CCC(=O)O)NC(=O)[C@H](CCCCNC(=O)COCCOCCNC(=O)COCCOCCNC(=O)CC[C@H](NC(=O)CCCCCCCCCCCCCCCCCCC(=O)O)C(=O)O)NC(=O)[C@H](CC(C)C)NC(=O)[C@H](Cc1ccccc1)NC(=O)[C@H](CO)NC(=O)[C@@H](NC(=O)[C@H](CC(=O)O)NC(=O)[C@H](CO)NC(=O)[C@@H](NC(=O)[C@H](Cc1ccccc1)NC(=O)[C@@H](NC(=O)CNC(=O)[C@H](CCC(=O)O)NC(=O)C(C)(C)NC(=O)[C@@H](N)Cc1c[nH]cn1)[C@@H](C)O)[C@@H](C)O)C(C)C)C(=O)N[C@@H](CCC(=O)O)C(=O)N[C@@H](Cc1c[nH]cn1)C(=O)N[C@@H](CC(C)C)C(=O)N[C@H](C(N)=O)C(C)C` [compound 173] (H-H[Aib]EGTFTSDVSFLK([AEEA-AEEA-γGlu-C20 diacid])EEA[Aib]LQRFLEHLV-NH2): in series [1], the “Turbidity (pH 7)” value came out at 0.08. In series [2], this compound displayed a Fibril formation of 2836. Further, the values for the EC50 at GLP1R (setting [3]) and at SCTR (setting [4]) were 0.0126 nM and 158 nM, respectively. Moreover, the “SCTR EC50/GLP1R EC50 ratio” value on GLP1R was 13696.
Taken in the same sequence, the figures for `CC(C)C[C@H](NC(=O)[C@H](Cc1ccccc1)NC(=O)[C@H](CCCNC(=N)N)NC(=O)[C@H](CCC(N)=O)NC(=O)[C@H](CC(C)C)NC(=O)C(C)(C)NC(=O)[C@H](C)NC(=O)[C@H](CCC(=O)O)NC(=O)[C@H](CCC(=O)O)NC(=O)[C@H](CCCCNC(=O)COCCOCCNC(=O)COCCOCCNC(=O)CC[C@H](NC(=O)CCCCCCCCCCCCCCCCCCC(=O)O)C(=O)O)NC(=O)[C@H](CC(C)C)NC(=O)[C@H](Cc1ccc(O)cc1)NC(=O)[C@H](CO)NC(=O)[C@@H](NC(=O)[C@H](CC(=O)O)NC(=O)[C@H](CO)NC(=O)[C@@H](NC(=O)[C@H](Cc1ccccc1)NC(=O)[C@@H](NC(=O)CNC(=O)[C@H](Cc1c[nH]cn1)NC(=O)C(C)(C)NC(=O)[C@@H](N)Cc1c[nH]cn1)[C@@H](C)O)[C@@H](C)O)C(C)C)C(=O)N[C@@H](CCC(=O)O)C(=O)N[C@@H](Cc1c[nH]cn1)C(=O)N[C@@H](CC(C)C)C(=O)N[C@H](C(N)=O)C(C)C` [compound 171] (H-H[Aib]HGTFTSDVSYLK([AEEA-AEEA-γGlu-C20 diacid])EEA[Aib]LQRFLEHLV-NH2) were 0.08, 3473, 0.158 nM, 31600 nM and 209459.
The corresponding values for `CC(C)C[C@H](NC(=O)[C@H](Cc1ccccc1)NC(=O)[C@H](CCCNC(=N)N)NC(=O)[C@H](CCC(N)=O)NC(=O)[C@H](CC(C)C)NC(=O)C(C)(C)NC(=O)[C@H](C)NC(=O)[C@H](CCC(=O)O)NC(=O)[C@H](CCC(=O)O)NC(=O)[C@H](Cc1ccccc1)NC(=O)[C@H](CC(C)C)NC(=O)[C@H](Cc1ccc(O)cc1)NC(=O)[C@H](CO)NC(=O)[C@@H](NC(=O)[C@H](CC(=O)O)NC(=O)[C@H](CO)NC(=O)[C@@H](NC(=O)[C@H](Cc1ccccc1)NC(=O)[C@@H](NC(=O)CNC(=O)[C@H](CCC(=O)O)NC(=O)C(C)(C)NC(=O)[C@@H](N)Cc1c[nH]cn1)[C@@H](C)O)[C@@H](C)O)C(C)C)C(=O)N[C@@H](CCC(=O)O)C(=O)N[C@@H](CCCCNC(=O)COCCOCCNC(=O)COCCOCCNC(=O)CC[C@H](NC(=O)CCCCCCCCCCCCCCCCCCC(=O)O)C(=O)O)C(=O)N[C@@H](CC(C)C)C(=O)N[C@H](C(N)=O)C(C)C` [compound 176] (H-H[Aib]EGTFTSDVSYLFEEA[Aib]LQRFLEK([AEEA-AEEA-γGlu-C20 diacid])LV-NH2) are 0.08, 3751, 0.0316 nM, 3160 nM and 89023.
For `CC(C)C[C@H](NC(=O)[C@H](Cc1ccccc1)NC(=O)[C@H](CCCNC(=N)N)NC(=O)[C@H](CCC(N)=O)NC(=O)[C@H](CO)NC(=O)[C@H](C)NC(=O)[C@H](C)NC(=O)[C@@H](NC(=O)[C@H](CCC(=O)O)NC(=O)[C@H](CCCCNC(=O)COCCOCCNC(=O)COCCOCCNC(=O)CC[C@H](NC(=O)CCCCCCCCCCCCCCCCCCC(=O)O)C(=O)O)NC(=O)[C@H](CC(C)C)NC(=O)[C@@H](NC(=O)[C@H](CO)NC(=O)[C@@H](NC(=O)[C@H](CC(=O)O)NC(=O)[C@H](CO)NC(=O)[C@@H](NC(=O)[C@H](Cc1ccccc1)NC(=O)[C@@H](NC(=O)CNC(=O)[C@H](CCC(=O)O)NC(=O)C(C)(C)NC(=O)[C@@H](N)Cc1c[nH]cn1)[C@@H](C)O)[C@@H](C)O)C(C)C)[C@@H](C)O)[C@@H](C)O)C(=O)N[C@@H](CCC(=O)O)C(=O)N[C@@H](Cc1c[nH]cn1)C(=O)N[C@@H](CC(C)C)C(=O)N[C@H](C(N)=O)C(C)C` [compound 20] (H-H[Aib]EGTFTSDVSTLK([AEEA-AEEA-γGlu-C20 diacid])ETAASQRFLEHLV-NH2), the “Turbidity (pH 7)” value in series [1] is given as 0.10. The compound further came in with a Fibril formation in series [2] of 33108. The Selectivity on GLP1R was determined as 22019. Also, the EC50 on GLP1R (setting [5]) is 0.02 nM; on SCTR (setting [6]), 398 nM.
In the case of `CC(C)C[C@H](NC(=O)[C@H](Cc1ccccc1)NC(=O)[C@H](CCCNC(=N)N)NC(=O)[C@H](CCC(N)=O)NC(=O)[C@H](CCC(N)=O)NC(=O)[C@H](C)NC(=O)[C@H](C)NC(=O)C(C)(C)NC(=O)[C@H](CCC(=O)O)NC(=O)[C@H](CCCCNC(=O)COCCOCCNC(=O)COCCOCCNC(=O)CC[C@H](NC(=O)CCCCCCCCCCCCCCCCCCC(=O)O)C(=O)O)NC(=O)[C@H](CC(C)C)NC(=O)[C@H](Cc1ccc(O)cc1)NC(=O)[C@H](CO)NC(=O)[C@@H](NC(=O)[C@H](CC(=O)O)NC(=O)[C@H](CO)NC(=O)[C@@H](NC(=O)[C@H](Cc1ccccc1)NC(=O)[C@@H](NC(=O)CNC(=O)[C@H](CCC(=O)O)NC(=O)C(C)(C)NC(=O)[C@@H](N)Cc1c[nH]cn1)[C@@H](C)O)[C@@H](C)O)C(C)C)C(=O)N[C@@H](CCC(=O)O)C(=O)N[C@@H](Cc1c[nH]cn1)C(=O)N[C@@H](CC(C)C)C(=O)N[C@H](C(N)=O)C(C)C` [compound 94] (H-H[Aib]EGTFTSDVSYLK([AEEA-AEEA-γGlu-C20 diacid])E[Aib]AAQQRFLEHLV-NH2), the “Turbidity (pH 7)” value in series [1] worked out at 0.08. The Fibril formation in series [2] is recorded as 10901. In addition, the EC50 is 0.01 nM at GLP1R (setting [3]) and 1000 nM on SCTR (setting [4]). Besides, the “SCTR EC50/GLP1R EC50 ratio” value on GLP1R was 111764.
Turning to `CC(C)C[C@H](NC(=O)[C@H](Cc1ccccc1)NC(=O)[C@H](CCCNC(=N)N)NC(=O)[C@H](CCC(N)=O)NC(=O)[C@H](CO)NC(=O)[C@H](C)NC(=O)[C@H](C)NC(=O)[C@H](CCC(=O)O)NC(=O)[C@H](CCC(=O)O)NC(=O)[C@H](CCCCNC(=O)COCCOCCNC(=O)COCCOCCNC(=O)CC[C@H](NC(=O)CCCCCCCCCCCCCCCCCCC(=O)O)C(=O)O)NC(=O)[C@H](CC(C)C)NC(=O)[C@H](CCCNC(=N)N)NC(=O)[C@H](CO)NC(=O)[C@@H](NC(=O)[C@H](CC(=O)O)NC(=O)[C@H](CO)NC(=O)[C@@H](NC(=O)[C@H](Cc1ccccc1)NC(=O)[C@@H](NC(=O)CNC(=O)[C@H](CCC(=O)O)NC(=O)C(C)(C)NC(=O)[C@@H](N)Cc1c[nH]cn1)[C@@H](C)O)[C@@H](C)O)C(C)C)C(=O)N[C@@H](CCC(=O)O)C(=O)N[C@@H](Cc1c[nH]cn1)C(=O)N[C@@H](CC(C)C)C(=O)N[C@H](C(N)=O)C(C)C` [compound 17] (H-H[Aib]EGTFTSDVSRLK([AEEA-AEEA-γGlu-C20 diacid])EEAASQRFLEHLV-NH2), the “Turbidity (pH 7)” value in series [1] amounted to 0.08. This compound gave a Fibril formation in series [2] of 10330. For the same compound, the Selectivity at GLP1R is given as 10637. The EC50 is 0.0251 nM at GLP1R (setting [5]) and 251 nM on SCTR (setting [6]).
As to `CC[C@H](C)[C@H](NC(=O)[C@H](Cc1ccccc1)NC(=O)[C@H](CCCNC(=N)N)NC(=O)[C@H](CCC(N)=O)NC(=O)[C@H](CC(C)C)NC(=O)[C@H](C)NC(=O)[C@H](C)NC(=O)CNC(=O)[C@H](CCC(=O)O)NC(=O)[C@H](CC(C)C)NC(=O)[C@H](CC(C)C)NC(=O)[C@H](CCC(=O)O)NC(=O)[C@H](CO)NC(=O)C(C)(C)NC(=O)[C@H](CC(=O)O)NC(=O)[C@H](CO)NC(=O)[C@@H](NC(=O)[C@H](Cc1ccccc1)NC(=O)[C@@H](NC(=O)CNC(=O)[C@H](CCC(=O)O)NC(=O)C(C)(C)NC(=O)[C@@H](N)Cc1c[nH]cn1)[C@@H](C)O)[C@@H](C)O)C(=O)N[C@@H](CCC(N)=O)C(=O)N[C@@H](Cc1c[nH]c2ccccc12)C(=O)N[C@@H](CC(C)C)C(=O)N[C@H](C(N)=O)C(C)C` [compound 109] (H-H[Aib]EGTFTSD[Aib]SELLEGAALQRFIQWLV-NH2), the “Turbidity (pH 7)” value in series [1] turned out to be 0.08. The same compound came in with a Fibril formation in series [2] of 3301. Moreover, the figures for the EC50 on GLP1R (setting [3]) and on SCTR (setting [4]) were 0.0794 nM and 3160 nM, respectively. Besides, the “SCTR EC50/GLP1R EC50 ratio” value at GLP1R came out at 39765.

Source of the values: patent US20260201008A1, “SECRETIN-DERIVED GLP1R SELECTIVE AGONISTS” (GUBRA A/S, priority 2023, published 2026).
